One may read the Ki as the equilibrium dissociation constant of an inhibitor or competing ligand from its target.

Here are results for one molecule from article PMC9064382 (RSC Advances, 2019).

One data set addresses T1, hOCT1 (Homo sapiens, UniProt O15245).
T1 sequence (O15245 1-554): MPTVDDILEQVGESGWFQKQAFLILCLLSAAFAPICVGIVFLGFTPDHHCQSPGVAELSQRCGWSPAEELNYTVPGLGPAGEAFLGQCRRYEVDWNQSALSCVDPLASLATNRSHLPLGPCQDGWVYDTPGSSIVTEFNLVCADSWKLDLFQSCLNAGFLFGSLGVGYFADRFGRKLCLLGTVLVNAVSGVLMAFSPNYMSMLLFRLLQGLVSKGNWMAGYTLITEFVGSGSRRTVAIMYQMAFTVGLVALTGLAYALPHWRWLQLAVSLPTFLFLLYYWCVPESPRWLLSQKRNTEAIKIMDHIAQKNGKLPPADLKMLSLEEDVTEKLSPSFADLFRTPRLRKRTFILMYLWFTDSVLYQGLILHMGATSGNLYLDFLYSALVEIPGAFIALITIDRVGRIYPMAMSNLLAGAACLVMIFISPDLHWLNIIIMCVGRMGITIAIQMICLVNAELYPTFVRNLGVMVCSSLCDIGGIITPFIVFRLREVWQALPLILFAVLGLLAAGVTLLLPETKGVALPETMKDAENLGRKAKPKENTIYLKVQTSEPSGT
Nature of the data set: Uptake of aconitum alkaloids in hOCT1-transfected cells vs mock. It is filed as in vitro ADME. The conditions noted are these: 10 μm, 5 min.

A further data set has as its target T2, hOATP1B3 (Homo sapiens, UniProt Q9NPD5).
T2 sequence (Q9NPD5 1-702): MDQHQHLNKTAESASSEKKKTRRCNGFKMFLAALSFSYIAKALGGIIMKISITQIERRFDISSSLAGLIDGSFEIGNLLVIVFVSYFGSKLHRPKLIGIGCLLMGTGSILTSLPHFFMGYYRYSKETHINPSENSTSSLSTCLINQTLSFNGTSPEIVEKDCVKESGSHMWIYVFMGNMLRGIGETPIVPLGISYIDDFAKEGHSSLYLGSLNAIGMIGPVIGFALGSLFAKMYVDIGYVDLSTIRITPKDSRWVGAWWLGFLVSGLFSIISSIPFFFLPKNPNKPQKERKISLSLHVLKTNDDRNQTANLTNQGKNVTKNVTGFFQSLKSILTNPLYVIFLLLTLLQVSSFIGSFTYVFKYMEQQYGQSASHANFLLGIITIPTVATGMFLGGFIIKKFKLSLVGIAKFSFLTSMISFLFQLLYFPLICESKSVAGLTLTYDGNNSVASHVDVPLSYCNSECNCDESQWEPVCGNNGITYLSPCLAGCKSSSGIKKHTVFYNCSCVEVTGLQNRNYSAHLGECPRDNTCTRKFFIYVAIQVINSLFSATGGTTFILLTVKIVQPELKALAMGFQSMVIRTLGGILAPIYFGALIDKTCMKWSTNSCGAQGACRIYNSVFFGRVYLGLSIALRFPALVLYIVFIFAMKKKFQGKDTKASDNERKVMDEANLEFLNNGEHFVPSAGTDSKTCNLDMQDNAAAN
The experiment in a line: Uptake of aconitum alkaloids in hOATP1B3-transfected HEK293 cells vs mock. It is filed as in vitro ADME. The conditions noted are these: 10 μm, 2 min.

The subject of a further data set is OCT2. The conditions noted are these: read-out: Ki, competitive inhibition of OCT2; TEA probe substrate; cited from earlier work.
Data set [1] is classed as in vivo, Sprague-Dawley (SD) rats. The following applies: aconitine 0.5 mg kg^−1 oral; pretreatment 15 min before; n = 6.
The format of data set [2] is in vivo, Sprague-Dawley (SD) rats. The conditions noted are these: aconitine 0.5 mg kg^−1 oral; pretreatment 15 min before; n = 6. The source holds these as a separate data set.

As to `CCN1C[C@]2(COC)[C@H](O)C[C@H](OC)[C@@]34[C@@H]5C[C@@]6(O)[C@H](OC(=O)c7ccccc7)[C@@H]5[C@@](OC(C)=O)([C@@H]([C@H](OC)[C@H]23)[C@@H]14)[C@@H](O)[C@@H]6OC` [aconitine], on hOCT1, the “concentration in HEK293–hOCT1, fold higher than control” value is listed as “roughly 1.9 fold”. Also, the “uptake in hOATP1B3-transfected cells, adjusted by protein concentration” value at hOATP1B3 (HEK293-hOATP1B3) is listed as 344 pmol mg^−1 protein. Also, the “concentration in hOATP1B3-transfected cells, fold of HEK293 mock cells” value on hOATP1B3 (HEK293-hOATP1B3 vs mock) amounted to 1.35 fold. Further, the Ki with OCT2 was 145 µM. Moreover, the “AUC(0–2 h) of aconitine in rat liver” value in data set [1] came out at 100.3 ± 8.9 ng/h/g. Further, the “AUC(0–2 h) of aconitine in rat kidneys” value in data set [2] came out at 60.5 ± 6.8 ng/h/g.
